Data set [1] concerns human skin. Kind of data set: Skin irritation test of active ingredient (patch method, CTFA guidelines). The format is in vivo. To be noted: for Test result (number of subject) (+) / Test result (number of subject) (−) / Test result (number of subject) (++) / Test result (number of subject) (±): 20 subjects, 24 hours patch; for Test result (number of subject) (+): apparent reddening; for Test result (number of subject) (−): no erythema or symptoms; for Test result (number of subject) (++): reddened and swollen; for Test result (number of subject) (±): slightly reddish; for Degree of irritation: Equation 1. The method, then:
A total of 20 people (10 men and 10 women in their 20s and 30s) were tested for skin irritation using the patch method according to the guidelines of CTFA (The Cosmetic, Toiletry & Fragrance Association, Inc. Washington, D.C.).
A filter paper disk was placed in an 8 mm diameter, 10 panels of pin chamber.
After 24 hours, the pin chamber was removed, and skin conditions were visually observed. The degree and grade for skin irritation were calculated according to the following Equation 1, and the results are shown in Table 3 below.
[Criteria for Skin Irritation]
(−): No erythema or particularly no symptoms; (±): slightly reddish than the periphery; (+): Apparent reddening than periphery; (++): More reddened and swollen than periphery.
[Grade for Skin Irritation]
Degree of irritation 0-0.1: Grade I (unstimulated);
Degree of irritation 0.11-0.3: Grade II (weakly stimulated);
Degree of irritation 0.31-0.5: Grade III (moderately stimulated);
Degree of irritation 0.51 or more: Grade IV (strongly stimulated)

Data set [2] can be described thus: Formaldehyde removing ability test (GC). Conditions: 2.0% formaldehyde solution, 3 molar equivalents, room temperature.

Structures are written as SMILES.

Consider `O=C(O)c1cncc(N2CCN(c3cncc(C(=O)O)c3)CCN(c3cncc(C(=O)O)c3)CCN(c3cncc(C(=O)O)c3)CC2)c1` [Embodiment 7, 5,5′,5″,5′″-(1,4,7,10-tetraazacyclododecane-1,4,7,10-tetrayl)tetranicotinic Acid], for which, in data set [1] (content 0.1%), the Grade result is listed as “I (Degree of irritation 0-0.1: Grade I (unstimulated))”, the “Test result (number of subject) (+)” value stood at 0, the “Test result (number of subject) (−)” value worked out at 20 and the “Test result (number of subject) (++)” value is 0. For the same compound, in data set [1] (content 0.1%), the “Test result (number of subject) (±)” value came to 0 and the Degree of irritation was 0. In addition, in data set [1] (content 0.5%), the Grade result was “I (Degree of irritation 0-0.1: Grade I (unstimulated))”, the “Test result (number of subject) (+)” value is given as 0, the “Test result (number of subject) (−)” value was 20 and the “Test result (number of subject) (++)” value amounted to 0. Further, in data set [1] (content 0.5%), the “Test result (number of subject) (±)” value was 0 and the Degree of irritation is 0. In addition, in data set [1] (content 1.0%), the Grade entry is listed as “I (Degree of irritation 0-0.1: Grade I (unstimulated))”, the “Test result (number of subject) (+)” value came to 0, the “Test result (number of subject) (−)” value worked out at 20 and the “Test result (number of subject) (++)” value was determined as 0. Further, in data set [1] (content 1.0%), the “Test result (number of subject) (±)” value stood at 0 and the Degree of irritation is on record as 0. For the same compound, the “Area (formaldehyde, GC)” value in data set [2] (30 min) is listed as 0.181 mAU * min. Also, the “Area (formaldehyde, GC)” value in data set [2] (180 min) is 0 mAU * min. The “Area (formaldehyde, GC)” value in data set [2] (Initial) stood at 0.305 mAU * min.

Take `O=C(O)c1ccc(N2CCN(c3ccc(C(=O)O)o3)CCN(c3ccc(C(=O)O)o3)CCN(c3ccc(C(=O)O)o3)CC2)o1` [Embodiment 8, 5,5′,5″,5′″-(1,4,7,10-tetraazacyclododecane-1,4,7,10-tetrayl)tetrakis(furan-2-carboxylic Acid)]: in data set [1] (content 0.1%), the Grade entry is “I (Degree of irritation 0-0.1: Grade I (unstimulated))”, the “Test result (number of subject) (+)” value is reported as 0, the “Test result (number of subject) (−)” value was determined as 20 and the “Test result (number of subject) (++)” value is recorded as 0. Also, in data set [1] (content 0.1%), the “Test result (number of subject) (±)” value came out at 0 and the Degree of irritation is 0. Further, in data set [1] (content 0.5%), the Grade result was “I (Degree of irritation 0-0.1: Grade I (unstimulated))”, the “Test result (number of subject) (+)” value amounted to 0, the “Test result (number of subject) (−)” value came to 20 and the “Test result (number of subject) (++)” value turned out to be 0. For the same compound, in data set [1] (content 0.5%), the “Test result (number of subject) (±)” value amounted to 0 and the Degree of irritation is recorded as 0. Moreover, in data set [1] (content 1.0%), the Grade entry is given as “I (Degree of irritation 0-0.1: Grade I (unstimulated))”, the “Test result (number of subject) (+)” value was 0, the “Test result (number of subject) (−)” value is reported as 18 and the “Test result (number of subject) (++)” value stood at 0. Also, in data set [1] (content 1.0%), the “Test result (number of subject) (±)” value is 2 and the Degree of irritation was 0.10. Further, in data set [2] (30 min), the “Area (formaldehyde, GC)” value came to 0.168 mAU * min. The “Area (formaldehyde, GC)” value in data set [2] (180 min) was 0 mAU * min. Moreover, in data set [2] (Initial), the “Area (formaldehyde, GC)” value was determined as 0.305 mAU * min.

Turning to `O=C(O)CN1CCCN(CC(=O)O)CCN(CC(=O)O)CCCN(CC(=O)O)CC1` [Embodiment 9, 2,2′,2″,2′″-(1,4,8,11-tetraazacyclotetradecane-1,4,8,11-tetrayl)tetraacetic Acid], in data set [1] (content 0.1%), the Grade result was “I (Degree of irritation 0-0.1: Grade I (unstimulated))”, the “Test result (number of subject) (+)” value amounted to 0, the “Test result (number of subject) (−)” value stood at 20 and the “Test result (number of subject) (++)” value came to 0. For the same compound, in data set [1] (content 0.1%), the “Test result (number of subject) (±)” value turned out to be 0 and the Degree of irritation is recorded as 0. Also, in data set [1] (content 0.5%), the Grade result was “I (Degree of irritation 0-0.1: Grade I (unstimulated))”, the “Test result (number of subject) (+)” value stood at 0, the “Test result (number of subject) (−)” value was determined as 20 and the “Test result (number of subject) (++)” value stood at 0. Moreover, in data set [1] (content 0.5%), the “Test result (number of subject) (±)” value is 0 and the Degree of irritation amounted to 0. Also, in data set [1] (content 1.0%), the Grade entry is listed as “I (Degree of irritation 0-0.1: Grade I (unstimulated))”, the “Test result (number of subject) (+)” value turned out to be 0, the “Test result (number of subject) (−)” value is 18 and the “Test result (number of subject) (++)” value is 0. In data set [1] (content 1.0%), the “Test result (number of subject) (±)” value is 2 and the Degree of irritation was 0.10. The “Area (formaldehyde, GC)” value in data set [2] (30 min) was found to be 0.182 mAU * min. Further, in data set [2] (180 min), the “Area (formaldehyde, GC)” value was found to be 0 mAU * min. For the same compound, in data set [2] (Initial), the “Area (formaldehyde, GC)” value stood at 0.305 mAU * min.

Regarding `O=C(O)c1ccc(N2CCCN(c3ccc(C(=O)O)cc3)CCN(c3ccc(C(=O)O)cc3)CCCN(c3ccc(C(=O)O)cc3)CC2)cc1` [Embodiment 10, 4,4′,4″,4′-(1,4,8,11-tetraazacyclotetradecane-1,4,8,11-tetrayl)tetrabenzoic Acid], in data set [1] (content 0.1%), the Grade result is reported as “I (Degree of irritation 0-0.1: Grade I (unstimulated))”, the “Test result (number of subject) (+)” value turned out to be 0, the “Test result (number of subject) (−)” value worked out at 20 and the “Test result (number of subject) (++)” value amounted to 0. Also, in data set [1] (content 0.1%), the “Test result (number of subject) (±)” value stood at 0 and the Degree of irritation was found to be 0. In data set [1] (content 0.5%), the Grade entry was “I (Degree of irritation 0-0.1: Grade I (unstimulated))”, the “Test result (number of subject) (+)” value amounted to 0, the “Test result (number of subject) (−)” value is 20 and the “Test result (number of subject) (++)” value was determined as 0. For the same compound, in data set [1] (content 0.5%), the “Test result (number of subject) (±)” value is reported as 0 and the Degree of irritation is recorded as 0. In addition, in data set [1] (content 1.0%), the Grade result is “I (Degree of irritation 0-0.1: Grade I (unstimulated))”, the “Test result (number of subject) (+)” value is listed as 0, the “Test result (number of subject) (−)” value is listed as 19 and the “Test result (number of subject) (++)” value amounted to 0. In addition, in data set [1] (content 1.0%), the “Test result (number of subject) (±)” value turned out to be 1 and the Degree of irritation came to 0.05. Further, the “Area (formaldehyde, GC)” value in data set [2] (30 min) is recorded as 0.171 mAU * min. Moreover, the “Area (formaldehyde, GC)” value in data set [2] (180 min) amounted to 0 mAU * min. In data set [2] (Initial), the “Area (formaldehyde, GC)” value is recorded as 0.305 mAU * min.

With `O=C(O)c1cncc(N2CCCN(c3cncc(C(=O)O)c3)CCN(c3cncc(C(=O)O)c3)CCCN(c3cncc(C(=O)O)c3)CC2)c1` [Embodiment 11, 5,5′,5″,5′″-(1,4,8,11-tetraazacyclotetradecane-1,4,8,11-tetrayl)tetranicotinic Acid], in data set [1] (content 0.1%), the Grade entry is recorded as “I (Degree of irritation 0-0.1: Grade I (unstimulated))”, the “Test result (number of subject) (+)” value turned out to be 0, the “Test result (number of subject) (−)” value came to 20 and the “Test result (number of subject) (++)” value amounted to 0. Further, in data set [1] (content 0.1%), the “Test result (number of subject) (±)” value is 0 and the Degree of irritation came out at 0. In data set [1] (content 0.5%), the Grade result is listed as “I (Degree of irritation 0-0.1: Grade I (unstimulated))”, the “Test result (number of subject) (+)” value is 0, the “Test result (number of subject) (−)” value is 20 and the “Test result (number of subject) (++)” value is 0. Besides, in data set [1] (content 0.5%), the “Test result (number of subject) (±)” value is listed as 0 and the Degree of irritation was determined as 0. In data set [1] (content 1.0%), the Grade result is “I (Degree of irritation 0-0.1: Grade I (unstimulated))”, the “Test result (number of subject) (+)” value was found to be 0, the “Test result (number of subject) (−)” value amounted to 18 and the “Test result (number of subject) (++)” value stood at 0. In data set [1] (content 1.0%), the “Test result (number of subject) (±)” value is given as 2 and the Degree of irritation amounted to 0.10. The “Area (formaldehyde, GC)” value in data set [2] (30 min) is listed as 0.174 mAU * min. The “Area (formaldehyde, GC)” value in data set [2] (180 min) stood at 0 mAU * min. The “Area (formaldehyde, GC)” value in data set [2] (Initial) worked out at 0.305 mAU * min.

For the compound `O=C(O)c1ccc(N2CCCN(c3ccc(C(=O)O)o3)CCN(c3ccc(C(=O)O)o3)CCCN(c3ccc(C(=O)O)o3)CC2)o1` [Embodiment 12, 5,5′,5″,5′″-(1,4,8,11-tetraazacyclotetradecane-1,4,8,1-tetrayl)tetrakis(furan-2-carboxylic Acid)], in data set [1] (content 0.1%), the Grade entry was “I (Degree of irritation 0-0.1: Grade I (unstimulated))”, the “Test result (number of subject) (+)” value turned out to be 0, the “Test result (number of subject) (−)” value was found to be 20 and the “Test result (number of subject) (++)” value amounted to 0. Further, in data set [1] (content 0.1%), the “Test result (number of subject) (±)” value is recorded as 0 and the Degree of irritation is given as 0. In data set [1] (content 0.5%), the Grade result is “I (Degree of irritation 0-0.1: Grade I (unstimulated))”, the “Test result (number of subject) (+)” value is reported as 0, the “Test result (number of subject) (−)” value came out at 20 and the “Test result (number of subject) (++)” value worked out at 0. Also, in data set [1] (content 0.5%), the “Test result (number of subject) (±)” value stood at 0 and the Degree of irritation came out at 0. Further, in data set [1] (content 1.0%), the Grade entry is listed as “I (Degree of irritation 0-0.1: Grade I (unstimulated))”, the “Test result (number of subject) (+)” value came to 0, the “Test result (number of subject) (−)” value is 19 and the “Test result (number of subject) (++)” value was 0. In data set [1] (content 1.0%), the “Test result (number of subject) (±)” value is on record as 1 and the Degree of irritation worked out at 0.05. The “Area (formaldehyde, GC)” value in data set [2] (30 min) turned out to be 0.170 mAU * min. Further, the “Area (formaldehyde, GC)” value in data set [2] (180 min) is listed as 0 mAU * min. Further, the “Area (formaldehyde, GC)” value in data set [2] (Initial) is reported as 0.305 mAU * min.
